Activity calls are given as the source filed them. The calls are words filed in the database; no cut-off is given here.
Experiments:
Format in all cases: cell-based
[1] = Inhibition of dsDNA-induced cGAS signaling pathway in mouse RAW-Lucia ISG cells preincubated with compound for 24 hrs followed by HT-DNA addition and measured after 24 hrs by QUANTI-Luc luciferase reagent based assay
[2] = Inhibition of dsDNA-induced cGAS signaling pathway in human THP1-Lucia ISG cells preincubated with compound for 24 hrs followed by HT-DNA addition and measured after 24 hrs by QUANTI-Luc luciferase reagent based assay
[3] = target: T1, Protein cereblon/Cyclic GMP-AMP synthase (Homo sapiens, UniProt Q96SW2+Q8N884); experiment: PROTAC activity at CRBN/cGAS in human THP-1 cells assessed as induction of cGAS degradation at 10 uM preincubated with compound for 40 hrs followed by HT-DNA stimulation and measured after 8 hrs by Western blot analysis relative to control; conditions: time 48.0 hrs
[4] = target: T1, Protein cereblon/Cyclic GMP-AMP synthase; experiment: PROTAC activity at CRBN/cGAS in human THP-1 cells assessed as induction of cGAS degradation at 10 uM incubated for 48 hrs by Western blot analysis
[5] = system: THP-1; experiment: Induction of cGAS degradation in human THP-1 cells at 10 uM preincubated with compound for 40 hrs followed by HT-DNA stimulation and measured after 8 hrs by Western blot analysis relative to control; conditions: time 48.0 hrs

T1 sequence (Q8N884 whole entry, looked up): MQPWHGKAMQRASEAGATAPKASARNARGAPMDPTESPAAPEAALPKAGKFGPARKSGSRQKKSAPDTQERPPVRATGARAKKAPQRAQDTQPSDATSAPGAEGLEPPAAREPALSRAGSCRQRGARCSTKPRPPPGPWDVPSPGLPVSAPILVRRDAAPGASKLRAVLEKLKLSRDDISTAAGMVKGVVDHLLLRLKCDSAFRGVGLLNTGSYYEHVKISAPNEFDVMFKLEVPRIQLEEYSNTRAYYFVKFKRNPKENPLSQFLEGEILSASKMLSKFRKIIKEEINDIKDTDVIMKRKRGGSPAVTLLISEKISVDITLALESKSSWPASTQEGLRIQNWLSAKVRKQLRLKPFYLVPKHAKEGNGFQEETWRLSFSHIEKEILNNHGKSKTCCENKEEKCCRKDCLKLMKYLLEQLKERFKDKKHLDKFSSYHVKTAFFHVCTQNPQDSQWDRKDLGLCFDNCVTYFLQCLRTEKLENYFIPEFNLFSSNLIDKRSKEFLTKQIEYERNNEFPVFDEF
T1 sequence (Q96SW2 whole entry, looked up): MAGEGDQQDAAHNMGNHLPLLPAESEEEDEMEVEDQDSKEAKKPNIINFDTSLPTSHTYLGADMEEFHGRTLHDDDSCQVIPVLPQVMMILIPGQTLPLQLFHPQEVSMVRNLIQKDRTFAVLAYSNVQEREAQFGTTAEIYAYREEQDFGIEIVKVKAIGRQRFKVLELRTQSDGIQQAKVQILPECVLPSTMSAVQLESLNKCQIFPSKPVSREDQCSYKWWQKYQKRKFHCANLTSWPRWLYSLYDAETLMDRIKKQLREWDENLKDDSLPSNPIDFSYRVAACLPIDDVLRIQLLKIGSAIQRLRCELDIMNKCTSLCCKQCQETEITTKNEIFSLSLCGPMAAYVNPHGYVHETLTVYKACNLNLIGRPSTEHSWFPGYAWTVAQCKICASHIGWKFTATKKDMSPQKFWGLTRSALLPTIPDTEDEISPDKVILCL

Compound	IC50 [1]	IC50 [2]	Activity [3]	Activity [4]	Activity [5]
Cn1ccc(-c2cc(Cl)c(Cl)c3[nH]c4c(c23)CN(C(=O)CNC(=O)CCCC#Cc2ccc3c(c2)CN(C2CCC(=O)NC2=O)C3=O)CC4)n1 (centres undefined)	> 50 µM	> 50 µM	25.6%		
Cn1ccc(-c2cc(Cl)c(Cl)c3[nH]c4c(c23)CN(C(=O)CNC(=O)CCCCC#Cc2cccc3c2C(=O)N(C2CCC(=O)NC2=O)C3=O)CC4)n1 (centres undefined)	> 50 µM	18.9 µM	48.5%		
O=C1CCC(N2C(=O)c3cccc(NCCOCCOCCOCCOCCOCCOCCOCCOCCC(=O)N4CCC(Cn5cc(-c6cc(Cl)c(Cl)c7[nH]c8c(c67)CN(C(=O)CO)CC8)cn5)CC4)c3C2=O)C(=O)N1 (centres undefined)	> 50 µM	> 50 µM	4.6%		
Cn1ccc(-c2cc(Cl)c(Cl)c3[nH]c4c(c23)CN(C(=O)CNC(=O)CCNc2cccc3c2C(=O)N(C2CCC(=O)NC2=O)C3=O)CC4)n1 (centres undefined)	> 50 µM	35.1 µM	42%		
Cn1ccc(-c2cc(Cl)c(Cl)c3[nH]c4c(c23)CN(C(=O)CNC(=O)CCC2CCN(C(=O)COc3cccc5c3C(=O)N(C3CCC(=O)NC3=O)C5=O)CC2)CC4)n1 (centres undefined)	> 50 µM	> 50 µM	18.9%		
Cn1ccc(-c2cc(Cl)c(Cl)c3[nH]c4c(c23)CN(C(=O)CNC(=O)CCCCCCCNc2cccc3c2C(=O)N(C2CCC(=O)NC2=O)C3=O)CC4)n1 (centres undefined)	> 50 µM	29.6 µM	34.2%		
Cn1ccc(-c2cc(Cl)c(Cl)c3[nH]c4c(c23)CN(C(=O)CNC(=O)COCCNc2cccc3c2C(=O)N(C2CCC(=O)NC2=O)C3=O)CC4)n1 (centres undefined)	> 50 µM	34.2 µM	38.2%		
Cn1ccc(-c2cc(Cl)c(Cl)c3[nH]c4c(c23)CN(C(=O)CNC(=O)CCOCCOCCOCCOCCNc2cccc3c2C(=O)N(C2CCC(=O)NC2=O)C3=O)CC4)n1 (centres undefined)	> 50 µM	> 50 µM	20.5%		
O=C1CCC(N2C(=O)c3cccc(NCCCC(=O)N4CCC(Cn5cc(-c6cc(Cl)c(Cl)c7[nH]c8c(c67)CN(C(=O)CO)CC8)cn5)CC4)c3C2=O)C(=O)N1 (centres undefined)	> 50 µM	> 50 µM	4.7%		
Cn1ccc(-c2cc(Cl)c(Cl)c3[nH]c4c(c23)CN(C(=O)CNC(=O)CCCCCCCCCCCNc2cccc3c2C(=O)N(C2CCC(=O)NC2=O)C3=O)CC4)n1 (centres undefined)	> 50 µM	> 50 µM	4.3%		
O=C1CCC(N2C(=O)c3cccc(NCCCCCCCCC(=O)N4CC(Cn5cc(-c6cc(Cl)c(Cl)c7[nH]c8c(c67)CN(C(=O)CO)CC8)cn5)C4)c3C2=O)C(=O)N1 (centres undefined)	> 50 µM	> 50 µM	21.2%		
Cn1ccc(-c2cc(Cl)c(Cl)c3[nH]c4c(c23)CN(C(=O)CNC(=O)CN2CCN(C(=O)COc3cccc5c3C(=O)N(C3CCC(=O)NC3=O)C5=O)CC2)CC4)n1 (centres undefined)	> 50 µM	> 50 µM	18.7%		
Cn1ccc(-c2cc(Cl)c(Cl)c3[nH]c4c(c23)CN(C(=O)CNC(=O)CCCCC#Cc2ccc3c(c2)CN(C2CCC(=O)NC2=O)C3=O)CC4)n1 (centres undefined)	> 50 µM	> 50 µM	21.9%		
Cn1ccc(-c2cc(Cl)c(Cl)c3[nH]c4c(c23)CN(C(=O)CNC(=O)CC2CCN(C(=O)COc3cccc5c3C(=O)N(C3CCC(=O)NC3=O)C5=O)CC2)CC4)n1 (centres undefined)	> 50 µM	> 50 µM	6.3%		
Cn1ccc(-c2cc(Cl)c(Cl)c3[nH]c4c(c23)CN(C(=O)CCCC#Cc2cccc3c2CN(C2CCC(=O)NC2=O)C3=O)CC4)n1 (centres undefined)	35.6 µM	25.6 µM	40.4%		
O=C1CCC(N2C(=O)c3cccc(NCCCCCC(=O)N4CC(Cn5cc(-c6cc(Cl)c(Cl)c7[nH]c8c(c67)CN(C(=O)CO)CC8)cn5)C4)c3C2=O)C(=O)N1 (centres undefined)	> 50 µM	> 50 µM	36.3%		
O=C1CCC(N2C(=O)c3cccc(NCCCCC(=O)N4CCC(Cn5cc(-c6cc(Cl)c(Cl)c7[nH]c8c(c67)CN(C(=O)CO)CC8)cn5)CC4)c3C2=O)C(=O)N1 (centres undefined)	> 50 µM	> 50 µM	10.5%		
Cn1ccc(-c2cc(Cl)c(Cl)c3[nH]c4c(c23)CN(C(=O)CNC(=O)CCCCCNc2cccc3c2C(=O)N(C2CCC(=O)NC2=O)C3=O)CC4)n1 (centres undefined)	26.7 µM	12.5 µM	59.3%		
Cn1ccc(-c2cc(Cl)c(Cl)c3[nH]c4c(c23)CN(C(=O)CNC(=O)CCCCCCCCCCNc2cccc3c2C(=O)N(C2CCC(=O)NC2=O)C3=O)CC4)n1 (centres undefined)	> 50 µM	38.8 µM	20.4%		
O=C1CCC(N2C(=O)c3cccc(NCCCCCCCCC(=O)N4CCC(Cn5cc(-c6cc(Cl)c(Cl)c7[nH]c8c(c67)CN(C(=O)CO)CC8)cn5)CC4)c3C2=O)C(=O)N1 (centres undefined)	> 50 µM	> 50 µM	23.9%		
Cn1ccc(-c2cc(Cl)c(Cl)c3[nH]c4c(c23)CN(C(=O)CNC(=O)CCCCCC#Cc2cccc3c2CN(C2CCC(=O)NC2=O)C3=O)CC4)n1 (centres undefined)	25.3 µM	12.7 µM	54.4%		
Nc1cccc2c1CN(C1CCC(=O)NC1=O)C2=O (centres undefined) [LENALIDOMIDE]	> 50 µM	> 50 µM			0.3%
Cn1ccc(-c2cc(Cl)c(Cl)c3[nH]c4c(c23)CN(C(=O)CNC(=O)COCCOCCOCCNc2cccc3c2C(=O)N(C2CCC(=O)NC2=O)C3=O)CC4)n1 (centres undefined)	> 50 µM	28.1 µM	34.6%		
O=C1CCC(N2C(=O)c3cccc(NCCCCCCC(=O)N4CCC(Cn5cc(-c6cc(Cl)c(Cl)c7[nH]c8c(c67)CN(C(=O)CO)CC8)cn5)CC4)c3C2=O)C(=O)N1 (centres undefined)	> 50 µM	25.8 µM	44.7%		
Cn1ccc(-c2cc(Cl)c(Cl)c3[nH]c4c(c23)CN(C(=O)CNC(=O)CCCCNc2cccc3c2C(=O)N(C2CCC(=O)NC2=O)C3=O)CC4)n1 (centres undefined)	16.1 µM	8.1 µM	61.5%		
Cn1ccc(-c2cc(Cl)c(Cl)c3[nH]c4c(c23)CN(C(=O)CCCCCCC#Cc2cccc3c2CN(C2CCC(=O)NC2=O)C3=O)CC4)n1 (centres undefined)	> 50 µM	28.8 µM	44.7%		
Cn1ccc(-c2cc(Cl)c(Cl)c3[nH]c4c(c23)CN(C(=O)CNC(=O)COCCOCCNc2cccc3c2C(=O)N(C2CCC(=O)NC2=O)C3=O)CC4)n1 (centres undefined)	> 50 µM	27.4 µM	46.8%		
Cn1ccc(-c2cc(Cl)c(Cl)c3[nH]c4c(c23)CN(C(=O)CNC(=O)CCCCCCCCCNc2cccc3c2C(=O)N(C2CCC(=O)NC2=O)C3=O)CC4)n1 (centres undefined)	> 50 µM	> 50 µM	12.4%		
O=C1CCC(N2C(=O)c3cccc(NCCOCCOCC(=O)N4CCC(Cn5cc(-c6cc(Cl)c(Cl)c7[nH]c8c(c67)CN(C(=O)CO)CC8)cn5)CC4)c3C2=O)C(=O)N1 (centres undefined)	> 50 µM	33.6 µM	44.3%		

Second part, led by results:

IC50 [1]	IC50 [2]	Activity [3]	Activity [4]	Compound	Activity [5]
> 50 µM	21.4 µM	57.7%		Cn1ccc(-c2cc(Cl)c(Cl)c3[nH]c4c(c23)CN(C(=O)CNC(=O)CCCCCC#Cc2cccc3c2C(=O)N(C2CCC(=O)NC2=O)C3=O)CC4)n1 (centres undefined)	
> 50 µM	> 50 µM	15.1%		Cn1ccc(-c2cc(Cl)c(Cl)c3[nH]c4c(c23)CN(C(=O)CNC(=O)CCN2CCN(C(=O)COc3cccc5c3C(=O)N(C3CCC(=O)NC3=O)C5=O)CC2)CC4)n1 (centres undefined)	
> 50 µM	28.4 µM	45.1%		Cn1ccc(-c2cc(Cl)c(Cl)c3[nH]c4c(c23)CN(C(=O)CCCCC#Cc2cccc3c2CN(C2CCC(=O)NC2=O)C3=O)CC4)n1 (centres undefined)	
> 50 µM	> 50 µM	10.4%		O=C1CCC(N2C(=O)c3cccc(NCCOCCOCCOCCOCCOCCC(=O)N4CCC(Cn5cc(-c6cc(Cl)c(Cl)c7[nH]c8c(c67)CN(C(=O)CO)CC8)cn5)CC4)c3C2=O)C(=O)N1 (centres undefined)	
25.6 µM	12.2 µM	58.7%		Cn1ccc(-c2cc(Cl)c(Cl)c3[nH]c4c(c23)CN(C(=O)CNC(=O)CCCNc2cccc3c2C(=O)N(C2CCC(=O)NC2=O)C3=O)CC4)n1 (centres undefined)	
39.8 µM	20.5 µM	57.7%		O=C1CCC(N2C(=O)c3cccc(NCCCCCC(=O)N4CCC(Cn5cc(-c6cc(Cl)c(Cl)c7[nH]c8c(c67)CN(C(=O)CO)CC8)cn5)CC4)c3C2=O)C(=O)N1 (centres undefined)	
> 50 µM	> 50 µM	13.9%		O=C1CCC(N2C(=O)c3cccc(NCCOCCOCCOCC(=O)N4CCC(Cn5cc(-c6cc(Cl)c(Cl)c7[nH]c8c(c67)CN(C(=O)CO)CC8)cn5)CC4)c3C2=O)C(=O)N1 (centres undefined)	
			inactive	CN1C(=O)CCC(N2Cc3c(C#CCCCC(=O)NCC(=O)N4CCc5[nH]c6c(Cl)c(Cl)cc(-c7ccn(C)n7)c6c5C4)cccc3C2=O)C1=O (centres undefined)	
30.8 µM	12.8 µM	56.1%		Cn1ccc(-c2cc(Cl)c(Cl)c3[nH]c4c(c23)CN(C(=O)CNC(=O)CCCC#Cc2cccc3c2C(=O)N(C2CCC(=O)NC2=O)C3=O)CC4)n1 (centres undefined)	
> 50 µM	> 50 µM	35.6%		O=C1CCC(N2C(=O)c3cccc(NCCCCCCCC(=O)N4CCC(Cn5cc(-c6cc(Cl)c(Cl)c7[nH]c8c(c67)CN(C(=O)CO)CC8)cn5)CC4)c3C2=O)C(=O)N1 (centres undefined)	
> 50 µM	37.1 µM	30.4%		Cn1ccc(-c2cc(Cl)c(Cl)c3[nH]c4c(c23)CN(C(=O)CNC(=O)CCCCCCCCNc2cccc3c2C(=O)N(C2CCC(=O)NC2=O)C3=O)CC4)n1 (centres undefined)	
15.1 µM	8.8 µM	57.7%		Cn1ccc(-c2cc(Cl)c(Cl)c3[nH]c4c(c23)CN(C(=O)CNC(=O)CCCCC#Cc2cccc3c2CN(C2CCC(=O)NC2=O)C3=O)CC4)n1 (centres undefined)	
28.3 µM	16.3 µM	55.1%		Cn1ccc(-c2cc(Cl)c(Cl)c3[nH]c4c(c23)CN(C(=O)CNC(=O)CCCCCCNc2cccc3c2C(=O)N(C2CCC(=O)NC2=O)C3=O)CC4)n1 (centres undefined)	

Reference: ChEMBL document CHEMBL6103619, “Discovery of a Novel CRBN-Recruiting cGAS PROTAC Degrader for the Treatment of Ulcerative Colitis” (J Med Chem, 2025)
